Several values for one entry are separate records, joined by “and”; a condition that tells them apart may be missing. Equal values may be shown once.
Key:
Format in all cases: in vivo, rat (male Sprague-Dawley)
[1] = Plasma free fatty acids, glucose and ketone bodies after 7 days of infusion; conditions: in words; plasma, end of day 7
Description: (§1) Infusate volume, oral food intake, body weight and urinary volume and total nitrogen were monitored daily for each rat. Infusate volume and food intake were determined by weighing the appropriate container at the start and end of each 24 hr. period. Measurements were recorded between 9 and 10 AM each day. At the end of the 7th day, rats were sacrificed, and blood and liver were harvested. Plasma was separated for measurement of free fatty acids, glucose, and ketone bodies. Liver was weighed and a sample was fixed in buffered formalin for gross histology.
(§2) The data were analyzed for significance by the one-way analysis of variance with repeated measures and comparing the effect of dietary treatment on each day. […] The null hypothesis was concluded invalid if p≤0.05. The analysis of variance was computed on a SAS statistical package.

[2] = Liver weight after 7 days of infusion; conditions: for Liver/100 GM: as percentage of body weight
Description: as §1
The data were analyzed for significance by the one-way analysis of variance with repeated measures and comparing the effect of dietary treatment on each day. […] The null hypothesis was concluded invalid if p≤0.05. The analysis of variance was computed on a SAS statistical package. […]

[3] = Daily body weight of intravenously infused rats
Description: (§3) Water was available ad libitum at all times.
(§4) The vein was then ligated dorsally to the catheter. […] Body weights were measured daily.
as §1, §2
(§5) This compound has an estimated energy density of 4.86 kcal/gram based on thermodynamic data from similar compounds.

[4] = Nitrogen balance (difference between intake and urinary output); conditions: for Nitrogen Balance, Difference Between Intake and Output: Table 3, Example 2
Description: as §3, §4, §1, §2
FIG. 3 illustrates the difference between oral intake and urinary nitrogen output which is termed nitrogen balance. It is representative of nitrogen balance because urinary nitrogen is the major route for body loss of nitrogen.
The experimental compound contains 8% nitrogen. With an infusion of 5.6 grams/day, infused nitrogen would provide approximately 450 mg more than that listed in the data tables. The final balance figures includes this number which is calculated based on the actual daily infusion rate for each rat.

[5] = Oral dietary nitrogen (food) intake of intravenously infused rats; conditions: for Dietary Nitrogen Intake: Table 1, Example 2
Description: as §3, §4, §1, §2, §5

What does the source list for `OC[C@H]1OC(O)[C@H](O)[C@@H](O)[C@@H]1O` (stereo partly drawn) [Glucose, glucose, reference compound]?
free fatty acid concentration [1]: not different for the three groups; Liver/100 GM ([2]; Table 5, Example 2, average of 7 rats): 3.220; Liver/100 GM ([2]; Table 5, Example 2, individual rat): 2.600 and 3.333 and 3.255 and 4.208 and 3.057 and 3.004 and 3.081; Liver Wt. ([2]; Table 5, Example 2, end of day 7, average of 7 rats): 7.983 Grams; Liver Wt. ([2]; Table 5, Example 2, end of day 7, individual rat): 6.37 Grams and 7.6 Grams and 8.17 Grams and 9.51 Grams and 7.03 Grams and 8.05 Grams and 9.15 Grams; Liver/100 GM ([2]; Table 11, Example 4, average): 3.636; Liver/100 GM ([2]; Table 11, Example 4, individual rat): 3.116 and 3.748 and 3.4975 and 3.789 and 4.01 and 4.617 and 3.403 and 3.377 and 3.169; Liver Wt. ([2]; Table 11, Example 4, end of day 7, average): 9.433; Liver Wt. ([2]; Table 11, Example 4, end of day 7, individual rat): 8.2264 and 11.4311 and 9.5132 and 8.9798 and 9.9056 and 12.0506 and 8.4742 and 8.2387 and 8.0815; liver weight and percentage liver weight ([2]; in words, end of day 7): similarity between glucose infused and experimental compound infused rats liver; Daily Body Weight ([3]; Table 4, Example 2, day 0, average of 7 rats): 258 Grams; Daily Body Weight ([3]; Table 4, Example 2, day 0, individual rat): 244 Grams and 228 Grams and 290 Grams and 250 Grams and 247 Grams and 281 Grams and 269 Grams; Daily Body Weight ([3]; Table 4, Example 2, day 1, average of 7 rats): 262 Grams; Daily Body Weight ([3]; Table 4, Example 2, day 1, individual rat): 238 Grams and 217 Grams and 329 Grams and 236 Grams and 244 Grams and 286 Grams and 284 Grams; Daily Body Weight ([3]; Table 4, Example 2, day 2, average of 7 rats): 257 Grams; Daily Body Weight ([3]; Table 4, Example 2, day 2, individual rat): 234 Grams and 211 Grams and 298 Grams and 233 Grams and 248 Grams and 293 Grams and 281 Grams; Daily Body Weight ([3]; Table 4, Example 2, day 3, average of 7 rats): 263 Grams; Daily Body Weight ([3]; Table 4, Example 2, day 3, individual rat): 229 Grams and 209 Grams and 337 Grams and 231 Grams and 266 Grams and 282 Grams and 286 Grams; Daily Body Weight ([3]; Table 4, Example 2, day 4, average of 7 rats): 259 Grams; Daily Body Weight ([3]; Table 4, Example 2, day 4, individual rat): 232 Grams and 207 Grams and 315 Grams and 226 Grams and 246 Grams and 295 Grams and 291 Grams; Daily Body Weight ([3]; Table 4, Example 2, day 5, average of 7 rats): 251 Grams; Daily Body Weight ([3]; Table 4, Example 2, day 5, individual rat): 232 Grams and 212 Grams and 278 Grams and 222 Grams and 240 Grams and 279 Grams and 294 Grams; Daily Body Weight ([3]; Table 4, Example 2, day 6, average of 7 rats): 255 Grams; Daily Body Weight ([3]; Table 4, Example 2, day 6, individual rat): 257 Grams and 230 Grams and 274 Grams and 220 Grams and 238 Grams and 293 Grams; Daily Body Weight ([3]; Table 4, Example 2, day 7, average of 7 rats): 249 Grams; Daily Body Weight ([3]; Table 4, Example 2, day 7, individual rat): 245 Grams and 228 Grams and 251 Grams and 226 Grams and 230 Grams and 268 Grams and 297 Grams; Daily Body Weight ([3]; Table 10, Example 4, day 0, average of 9 rats): 252 Grams; Daily Body Weight ([3]; Table 10, Example 4, day 0, individual rat): 254 Grams and 288 Grams and 263 Grams and 251 Grams and 227 Grams and 260 Grams and 249 Grams and 233 Grams and 247 Grams; Daily Body Weight ([3]; Table 10, Example 4, day 1, average of 9 rats): 249 Grams; Daily Body Weight ([3]; Table 10, Example 4, day 1, individual rat): 247 Grams and 292 Grams and 256 Grams and 225 Grams and 259 Grams and 241 Grams and 227 Grams and 244 Grams; Daily Body Weight ([3]; Table 10, Example 4, day 2, average of 9 rats): 252 Grams; Daily Body Weight ([3]; Table 10, Example 4, day 2, individual rat): 261 Grams and 290 Grams and 267 Grams and 246 Grams and 224 Grams and 259 Grams and 237 Grams and 235 Grams and 245 Grams; Daily Body Weight ([3]; Table 10, Example 4, day 3, average of 9 rats): 251 Grams; Daily Body Weight ([3]; Table 10, Example 4, day 3, individual rat): 260 Grams and 292 Grams and 269 Grams and 240 Grams and 227 Grams and 264 Grams and 244 Grams and 234 Grams and 229 Grams; Daily Body Weight ([3]; Table 10, Example 4, day 4, average of 9 rats): 258 Grams; Daily Body Weight ([3]; Table 10, Example 4, day 4, individual rat): 263 Grams and 297 Grams and 273 Grams and 239 Grams and 234 Grams and 282 Grams and 248 Grams and 245 Grams; Daily Body Weight ([3]; Table 10, Example 4, day 5, average of 9 rats): 257 Grams; Daily Body Weight ([3]; Table 10, Example 4, day 5, individual rat): 268 Grams and 298 Grams and 270 Grams and 237 Grams and 239 Grams and 250 Grams and 241 Grams; Daily Body Weight ([3]; Table 10, Example 4, day 6, average of 9 rats): 263 Grams; Daily Body Weight ([3]; Table 10, Example 4, day 6, individual rat): 263 Grams and 302 Grams and 267 Grams and 241 Grams and 259 Grams and 268 Grams and 254 Grams and 245 Grams and 271 Grams; Daily Body Weight ([3]; Table 10, Example 4, day 7, average of 9 rats): 259 Grams; Daily Body Weight ([3]; Table 10, Example 4, day 7, individual rat): 264 Grams and 305 Grams and 272 Grams and 237 Grams and 247 Grams and 261 Grams and 249 Grams and 244 Grams and 255 Grams; nitrogen balance ([4]; Example 2, 7 days): around +100 mg/day; nitrogen balance ([4]; Example 4, infused nitrogen considered (FIG. 8)): over 200 mg/day; Nitrogen Balance, Difference Between Intake and Output ([4]; day 1, average of 7 rats): 59 MG N; Nitrogen Balance, Difference Between Intake and Output ([4]; day 1, individual rat): -52.22 MG N and 72.46 MG N and -54.7 MG N and 31.61 MG N and 33.35 MG N and 204.48 MG N and 181.5 MG N; Nitrogen Balance, Difference Between Intake and Output ([4]; day 2, average of 7 rats): 156 MG N; Nitrogen Balance, Difference Between Intake and Output ([4]; day 2, individual rat): 85.19 MG N and 10.96 MG N and 116 MG N and 69.7 MG N and 102.25 MG N and 269.41 MG N and 438.03 MG N; Nitrogen Balance, Difference Between Intake and Output ([4]; day 3, average of 7 rats): 88 MG N; Nitrogen Balance, Difference Between Intake and Output ([4]; day 3, individual rat): 92.92 MG N and 23.56 MG N and -40.36 MG N and -62.37 MG N and 104.99 MG N and 102.06 MG N and 394.76 MG N; Nitrogen Balance, Difference Between Intake and Output ([4]; day 4, average of 7 rats): 193 MG N; Nitrogen Balance, Difference Between Intake and Output ([4]; day 4, individual rat): 21.88 MG N and 37.92 MG N and 298.24 MG N and 5.39 MG N and 316.2 MG N and 269.11 MG N and 402.28 MG N; Nitrogen Balance, Difference Between Intake and Output ([4]; day 5, average of 7 rats): 113 MG N; Nitrogen Balance, Difference Between Intake and Output ([4]; day 5, individual rat): 125.86 MG N and 104.41 MG N and 91.79 MG N and 73.12 MG N and -0.62 MG N and -24.03 MG N and 421.33 MG N; Nitrogen Balance, Difference Between Intake and Output ([4]; day 6, average of 7 rats): 124 MG N; Nitrogen Balance, Difference Between Intake and Output ([4]; day 6, individual rat): 3.77 MG N and 39.74 MG N and 16.23 MG N and 206.92 MG N and 170.57 MG N and 41.21 MG N and 392.42 MG N; Nitrogen Balance, Difference Between Intake and Output ([4]; day 7, average of 7 rats): 137 MG N; Nitrogen Balance, Difference Between Intake and Output ([4]; day 7, individual rat): 105.77 MG N and 52.38 MG N and -205.13 MG N and 366.51 MG N and 85.9 MG N and 206.76 MG N and 345.19 MG N; nitrogen balance ([4]; in words, 7 days): positive nitrogen balances; Dietary Nitrogen Intake ([5]; day 1, individual rat): 111.86 MG N and 164.5 MG N and 486.92 MG N and 269.78 MG N; Dietary Nitrogen Intake ([5]; day 2, individual rat): 217.14 MG N and 85.54 MG N and 427.7 MG N and 144.76 MG N and 493.5 MG N and 526.4 MG N; Dietary Nitrogen Intake ([5]; day 3, individual rat): 151.34 MG N and 118.44 MG N and 559.3 MG N and 52.64 MG N and 250.04 MG N and 276.36 MG N and 631.68 MG N; Dietary Nitrogen Intake ([5]; day 4, individual rat): 131.6 MG N and 118.44 MG N and 572.46 MG N and 98.7 MG N and 394.8 MG N and 414.54 MG N and 526.4 MG N; Dietary Nitrogen Intake ([5]; day 5, individual rat): 236.88 MG N and 230.3 MG N and 407.96 MG N and 157.92 MG N and 223.72 MG N and 217.14 MG N and 559.3 MG N; Dietary Nitrogen Intake ([5]; day 6, average of 7 rats): 303 MG N; Dietary Nitrogen Intake ([5]; day 6, individual rat): 118.44 MG N and 105.28 MG N and 243.46 MG N and 342.16 MG N and 289.52 MG N and 375.06 MG N and 644.84 MG N; Dietary Nitrogen Intake ([5]; day 7, individual rat): 177.66 MG N and 157.92 MG N and 269.78 MG N and 526.4 MG N and 210.56 MG N and 473.76 MG N and 664.58 MG N; appetite depression ([5]; in words, Example 4): glucose induced better appetite depression than did the experimental compound; differences in dietary nitrogen intake among the three groups ([5]; in words, vs saline and other groups, 7 days): no differences in dietary nitrogen intake among the three groups

From patent US5420335A, “Parenteral nutrients based on watersoluble glycerol bisacetoacetates” (priority 1993, dated 1995)
